Assay results reported in patent US4758555A, “Method for treating convulsions and epilepsy with organic copper compounds” (priority 1986, dated 1988).
Entries after “also recorded” stand apart in the source; their conditions may differ.

Legend:
[1] = known from literature; cited from earlier work
[2] = Anticonvulsant activity, both or unspecified seizure models; assay type: in vivo, male Carworth Farms #1 mice or Sprague-Dawley rats; settings: for Anticonvulsant activity (in words): running text
[3] = cited from earlier work
[4] = Maximal Electroshock Seizure Test; assay type: in vivo, male Carworth Farms #1 mice or Sprague-Dawley rats; settings: for Anticonvulsant activity, Maximal Electroshock: Table VI; for Protection Against Seizure: Table IX, maximal electroshock, intraperitoneal, 65 mg/kg, 5 animals
[5] = Rotating rod neurotoxicity; settings: dose and time given in the source
[6] = Subcutaneous Pentylenetetrazol (Metrazol) Seizure Threshold Test; assay type: in vivo, male Carworth Farms #1 mice or Sprague-Dawley rats; settings: for Anticonvulsant activity, Metrazol: Table VI
[7] = cited from earlier work; for Anticonvulsant activity reported previously (in words): 50, 100 and 300 mg/kg at 0.75, 1.5 and 3 hours post subcutaneous injection at a site different from Metrazol
[8] = Sleep time / hypnosis or sedation; assay type: in vivo; settings: Table IX, intraperitoneal, 65 mg/kg; for Average Sleep Time: 5 animals
Procedure: In Phase I identification of anticonvulsant activity, test compounds were given intraperitoneally (IP) at 30, 100, 300 and, in some cases, 600 milligrams per kilogram (mg/kg) of body weight and protection against Maximal Electroshock and/or Metrazol-induced seizures was determined 30 minutes, 4 hours, or later. […] Subsequently the routine protocol was modified and certain of the test compounds (see Tables, infra) re-evaluated following subcutaneous (SC) injection at periods of up to 8 hours post injection. Subcutaneous administration can be helpful in determining whether or not hypnotic activity can be distinguished from anticonvulsant activity based upon the decreased rate of absorption associated with this route of administration as opposed to the more rapid rate of absorption associated with IP administration.

[9] = mouse, in vivo; cited from earlier work
[10] = SC at site different from injection of Metrazol

## O=C(O)c1ccccc1O [salicylate]
[1]
  Convulsions / CNS toxicity at high doses: cause convulsions at high doses

## O=C1NC(=O)C(c2ccccc2)(c2ccccc2)N1 [Dilantin, Phenytoin, reference compound]
[2]; Phase II
  Time of peak effect: 1 h
[2]; Table X, IP, challenge time
  Time of peak activity (Phase II): 1 h
[3]
  Known effect of parent drug on seizures: known to only inhibit Maximal Electroshock-induced seizures but it potentiates Metrazol-induced seizures
[4]; Mus musculus, Table X, IP, at time of peak activity, read-out: ED50 for inhibition of seizures, MES (Phase II)
  ED50: 7 mg/kg

## C1CCc2nnnn2CC1.[Cl-].[Cl-].[Cu+2] [Cu(II)(Metrazol)Cl2]
[2]
  Anticonvulsant activity (in words): some anticonvulsant activity when injected at a site different from the site of Metrazol injection
[5]
  Rotating rod toxicity (in words): no rotating rod toxicity at doses up to 600 mg/kg
[4]; IP
  Anticonvulsant activity, Maximal Electroshock: I
[4]; [10]
  Anticonvulsant activity, Maximal Electroshock: I

## CC(=O)CC(C)=NCCN=C(C)CC(C)=O.[Cu] [Cu(II) Bisacetylacetonethyleneimine]
[2]
  Anticonvulsant activity (in words): effective in preventing both Maximal Electroshock and Metrazol-induced seizures
[5]; listed as bisacetylacetonethyleneimine complex
  Rotating rod toxicity (in words): rotating rod toxicity, which may also have been due to hypnotic activity, was found at the higher doses studied

## Copper acetate [Cu(II)2 (acetate)4]
[2]
  Anticonvulsant activity (in words): active when injected at the same site as the site of Metrazol injection; also recorded: lack of anticonvulsant activity
[2]; listed as copper acetate
  Anticonvulsant activity (in words): inactive when administered orally
[6]; [10]
  Anticonvulsant activity, Metrazol: I
[6]; intragastric
  Anticonvulsant activity, Metrazol: I
[6]; intraperitoneal (copper acetate: site different from Metrazol)
  Lowest dose with activity against Metrazol-induced seizures: 5 mg/kg
[6]; running text
  Protection against Metrazol-induced seizures (in words): effective in inhibiting Metrazol-induced seizures
[7]
  Anticonvulsant activity reported previously (in words): no anticonvulsant activity
[4]; IP
  Anticonvulsant activity, Maximal Electroshock: I
[4]; SC, same injection site used for injection of Metrazol
  Anticonvulsant activity, Maximal Electroshock: I
[4]; intragastric
  Anticonvulsant activity, Maximal Electroshock: I

## CCC1(CCC(C)C)C(=O)[N-]C(=O)NC1=O.CCC1(CCC(C)C)C(=O)[N-]C(=O)NC1=O.[Cu+2] [Cu(II)(amobarbital)2]
[2]; in vivo
  Potency or effectiveness relative to a comparator (in words): more potent anticonvulsant than sodium (Na) amobarbital
[8]
  Sleep (in words): All animals slept
  Average Sleep Time: 16 min
[4]
  Protection Against Seizure: 100 Percent protected

## [Cl][Cu][Cl] [copper chloride]
[7]
  Anticonvulsant activity reported previously (in words): no anticonvulsant activity

## CCC1(CCC(C)C)C(=O)NC(=O)NC1=O [Na amobarbital, sodium (Na) amobarbital, reference compound]
[8]
  Average Sleep Time: 0 min
[4]
  Protection Against Seizure: 0 Percent protected

## C1CCc2nnnn2CC1 [Metrazol, pentylenetetrazol]
[7]; 85 mg/kg subcutaneous
  Seizures produced: greater than 97 % of mice
[9]
  CNS stimulation / rotating rod toxicity (known): potent central nervous system stimulant; also recorded: marked rotating rod toxicity
